The results in this text go back to article PMC8879803, “Identification of a Common Pharmacophore for Binding to MMP2 and RGD Integrin: Towards a Multitarget Approach to Inhibit Cancer Angiogenesis and Metastasis” (Molecules, 2022).

In one experiment the target is T1, MMP2 (Homo sapiens, UniProt P08253).
T1 sequence (P08253 110-660): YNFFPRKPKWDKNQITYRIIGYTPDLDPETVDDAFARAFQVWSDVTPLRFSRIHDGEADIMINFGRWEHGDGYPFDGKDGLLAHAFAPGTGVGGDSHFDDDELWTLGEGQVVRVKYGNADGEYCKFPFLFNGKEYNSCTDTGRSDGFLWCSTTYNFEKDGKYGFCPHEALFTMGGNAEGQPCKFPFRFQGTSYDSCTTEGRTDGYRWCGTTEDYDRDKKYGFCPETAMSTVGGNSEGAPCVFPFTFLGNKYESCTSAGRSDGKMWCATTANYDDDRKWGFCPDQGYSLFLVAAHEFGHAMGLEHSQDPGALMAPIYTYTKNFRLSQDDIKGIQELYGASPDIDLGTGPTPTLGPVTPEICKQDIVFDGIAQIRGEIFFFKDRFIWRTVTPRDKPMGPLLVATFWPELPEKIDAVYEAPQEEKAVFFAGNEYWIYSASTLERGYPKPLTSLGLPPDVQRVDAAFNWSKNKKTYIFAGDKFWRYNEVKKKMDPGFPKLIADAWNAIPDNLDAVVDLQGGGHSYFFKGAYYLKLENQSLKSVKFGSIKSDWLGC
As to the kind of experiment: Fluorometric enzyme inhibition assay with fluorogenic substrate Mca-Lys-Pro-Leu-Gly-Leu-Dpa-Ala-Arg-NH2 (MMP2). It is filed as biochemical. The method, then:
(§1) For all the compounds showing >50% inhibition activity the IC50 values were obtained by dose-response measurements using an inhibitor range of concentrations (0.01 nM–20 μM) and enzyme concentration equal to 1 nM.
(§2) The inhibition potency of hydroxamic acid derivatives against MMP2 and MMP9 was assayed through a fluorometric assay using the fluorogenic substrate Mca-Lys-Pro-Leu-Gly-Leu-Dpa-Ala-Arg-NH2 (Enzo life science). All the measurements were performed in 96-well plates with a Fluostar Optima microplate reader (BMG Labtech, Ortenberg, Germany). Excitation and emission wavelengths were 320 and 420 nm, respectively. All incubations were performed at 28 °C in 50 mM TrisHCl, 150 mM NaCl, 10 mM CaCl2, 0.05% Brij 35, 1% DMSO at pH 7.5. The inhibitors were pre-incubated with enzymes (1 nM) for 5 min at room temperature before the reaction was started by the addition of the fluorogenic substrate (3 µM). The […] of fluorescence was monitored over 30 min (λex = 320 nm, λem = 420 nm) at 28 °C. The percentages of inhibition for the test compounds were determined through the equation (1 − Vs/Vo) × 100, where vs. is the initial velocity in the presence of the inhibitor and V0 is the initial velocity of the uninhibited reaction. The IC50 values were obtained by dose-response measurements using inhibitor range of concentrations 0.00001–20 μM and enzyme concentration equal to 1 nM. A detergent-based assay was used to determine the presence of promiscuous inhibitors. All the experiments were performed in triplicates and data collected were analyzed using Graphpad 5.0 Software Package (GraphPad Prism Inc., San Diego, CA, USA).

In the next experiment the target is MMP9 (Homo sapiens, UniProt P14780). As to the kind of experiment: Fluorometric enzyme inhibition assay with fluorogenic substrate Mca-Lys-Pro-Leu-Gly-Leu-Dpa-Ala-Arg-NH2 (MMP9). In kind it is biochemical. The protocol:
as §1, §2

Experiment [1] has as its target T2, purified human integrin proteins αvβ3 (Homo sapiens, UniProt P05106+P06756).
T2 construct: purchased Sino Biological Europe GmbH, Eschborn, Germany
Briefly: Solid-phase integrin binding assay (competition with biotinylated vitronectin). The method, then: As regarding to the binding affinity towards αvβ3, the library was screened using an in vitro solid-phase assays were performed at 10, 1.0 and 0.1 μM concentration of the test compounds for their ability to compete with biotinylated vitronectin for binding to pure αvβ3 integrin isolated from human placenta, and % binding activity is reported in Table 2.
Purified αvβ3 receptors (Sino Biological Europe GmbH, Eschborn, Germany) were diluted to 0.5 μg/mL in coating buffer containing Tris-HCl (20 mmol/L; pH 7.4), NaCl (150 mmol/L), MnCl2 (1 mmol/L), CaCl2 (2 mmol/L) and MgCl2 (1 mmol/L). An aliquot of diluted receptors (100 μL per well) was added to 96-well microtiter plates (MW 96F Medisorp Straight Nunc, Thermo Fischer Scientific, Waltham, MA, USA) and incubated, overnight, at 4 °C. The plates were then incubated with blocking solution (coating buffer plus 5% bovine serum albumin) for an additional 2 h at room temperature to block nonspecific binding followed by 3 h incubation at room temperature with various concentrations of test compounds in the presence of vitronectine (1 μg/mL, Sigma Aldrich, Merck KGaA, Darmstadt, Germany) biotinylated by using EZ-Link Sulfo-NHS-Biotinylation kit (Thermo Fisher, Waltham, MA, USA). After washing, the plates were incubated for 1 h at room temperature with streptavidin–biotinylated peroxidase complex (GE Healthcare, Chicago, IL, USA), followed by 30 min incubation with substrate reagent solution (100 μL; R&D Systems) before stopping the reaction by addition of H2SO4 (2 N, 50 μL). Absorbance at 415 nm was read with a BMG Labtech Fluostar Optima microplate reader. All the experiments were performed in triplicates and data collected were analyzed using the GraphPad 5.0 Software Package.

In another experiment the test system is M21 human melanoma cells. Briefly: Inhibition of integrin-mediated M21 cell adhesion to vitronectin. It is filed as cell-based. Conditions: Homo sapiens, M21, 2 mM MnCl2, relative to vehicle (PBS). The protocol: All the compounds but 17 were also tested for their integrin binding affinity towards M21 human melanoma cells that expresses high levels of αvβ3 heterodimer and using cilengitide as a control. Tests were performed in the presence of 2 mM MnCl2 to switch integrins of tumour cells into an activated form, and at final concentration of the compounds ranging from 30 μM to 0.3 μM (Table 3). […] We were pleased to find that compound 19 maintained a good inhibition potency at 0.3 μM as the lowest concentration used, thus confirming the capacity of this compound to inhibit the binding of M21 melanoma cells to vitronectin as an RGD-containing substrate.
The expression levels of αVβ3 integrin receptors on M21 melanoma cell lines were reported previously. Next, 96 wells plates were coated overnight, at 4 °C, with vitronectin (5 μg/mL in PBS) (V8379 Sigma). Plates were, then washed with phosphate buffered saline (PBS) solution and incubated at 37 °C for 1 h with PBS containing 1% bovine serum albumin (BSA). M21 cells were centrifugated (RT, at 700× g) in PBS, to remove serum. Cells were counted and suspended in serum-free medium at 5.0 × 10^5 cells/mL. Melanoma cell suspensions were pre-incubated with different amounts of the compounds. The final concentration ranged from 30 uM to 0.3 uM, using cilengitide as a control. The incubation was performed at 37 °C for 30 min to allow the ligand-receptor equilibrium to be reached. Next, cells were plated on VN substrata (5–6 × 10^4 cells/well) and incubated at 37 °C for 1 h. The assays were conducted in the presence of 2 mmol/L MnCl2 [26]. At the end of the incubation, plates were washed with PBS to remove the non-adherent cells, and 200 μL of 0.5% crystal violet solution in 20% methanol were added. After 2 h of static incubation at 4 °C, plates were examined at 540 nm in a counter ELX800 (Bio TEK Instruments, Winooski, VT, USA). Experiments were done in triplicate and repeated at least three times. The values are expressed as % inhibition of cell adhesion relative to cells exposed to vehicle alone (PBS).

The mark [2] stands for this setting: 10 μM compound, enzyme 1 nM, mean of three assays.
Where [3] appears, read: 50 μM compound, enzyme 1 nM, mean of three assays.

As a reminder, the inhibition is the change of the read-out against control, counted positive when it falls. By IC50 is commonly meant the midpoint of a concentration-inhibition curve. For the molecule `NCCCOc1ccc(C[C@H](NS(=O)(=O)c2ccc(-c3ccccc3)cc2)C(=O)NO)cc1` [Compound 19, (S)-2-([1,1′-Biphenyl]-4-ylsulfonamido)-3-(4-(3-aminopropoxy)phenyl)-N-hydroxypropanamide], at MMP2, the “IC50 towards MMP2, in words” value is “nanomolar range”. Besides, the inhibition at 10 µM at MMP2 (setting [2]) was 100%; on MMP9 (setting [2]), 100%; in experiment [1] (at 10 μM, read-out: Inhibition % of biotinylated vitronectin specific binding to αvβ3), 88%. The inhibition at 50 µM against MMP2 (setting [3]) and at MMP9 (setting [3]) was 100% in each case. The IC50 against MMP2 (dose-response, enzyme 1 nM) stood at 55 nM; against MMP9 (dose-response, enzyme 1 nM) it was 38 nM; in experiment [1] (dose-response assay, read-out: IC50 (αvβ3), inhibition of biotinylated vitronectin binding) it was 370 nM. Also, at MMP9 (statement in text (gelatinases)), the “IC50 towards MMP9, in words” value is “nanomolar range”. Besides, the inhibition at 0.1 µM in experiment [1] (at 0.1 μM, read-out: Inhibition % of biotinylated vitronectin specific binding to αvβ3) was 21%. Also, the inhibition at 1 µM in experiment [1] (at 1 μM, read-out: Inhibition % of biotinylated vitronectin specific binding to αvβ3) amounted to 41%. In addition, testing at 0.3 µM with M21 human melanoma cells (at 0.3 μM) gave an inhibition of 57.8%. Testing at 3 µM in the experiment on M21 human melanoma cells (at 3 μM) gave an inhibition of 35.8%. The inhibition at 30 µM with M21 human melanoma cells (at 30 μM) is 65.7%.
